Results: patent publication US20220136016A1, “MODIFIED CHLORAMPHENICOL […] AND BIOSYNTHESIS METHOD OF MAKING ESTERS USING SAME” (UNIVERSITY OF TENNESSEE RESEARCH FOUNDATION, priority 2020, published 2022)
Positions count from the first letter of the chain named. Names and notes keep the numbering of the source.

B1: CAT_GEO: wild type CAT, type A, Geomicrobium sp. (protein, listed as Geomicrobium sp.)
chain: MTFNPITLENWERKEYFNHYLNQQTTFSMTTDIEISSFKAAIKRKGYKFYPTFIYMVTEVINANESFRISFNEEGKLGYWEKLIPLYTVFDDQKQSFSNLWTDSTGNVLTFQEDYDRDVAEYNHIGGLFPKTPIPANTFPISMIPWNSFSGFNLNVGNGGNFLLPIITAGKYYSKGTATYLPVSLQVHHAVCDGYHAASFMNQLQELANTTNEWL
modifications: SITE (1)..(215) CAT_GEO, Type A
B2: CATec3 F97W Y20F: CATec3 with Y20F mutation in combination with F97W (protein, UniProt P00484 1-213, looked up, variant Y20F F97W)
Chloramphenicol …: MNYTKFDVKNWVRREHFEFFRHRLPCGFSLTSKIDITTLKKSLDDSAYKFYPVMIYLIAQAVNQFDELRMAIKDDELIVWDSVDPQFTVFHQETETWSALSCPYSSDIDQFMVNYLSVMERYKSDTKLFPQGVTPENHLNISALPWVNFDSFNLNVANFTDYFAPIITMAKYQQEGDRLLLPLSVQVHHAVCDGFHVARFINRLQELCNSKLK
B3: CATec3: wild type CAT, type A, Escherichia coli; expressed in strain HSCT2107 (protein, listed as Escherichia coli)
chain: B2 Chloramphenicol … with F20Y, W97F
modifications: SITE (1)..(213) CAT3_ECOLX, Type A
notes: wild type CAT, type A, Escherichia coli; expressed in strain HSCT2107
B4: CATec3 F97W: comparative CATec3 with F97W mutation (protein, UniProt P00484 1-213, looked up, variant F97W)
Chloramphenicol …: B2 Chloramphenicol … with F20Y

Test system: not listed separately
Test: Melting temperature (Tm) of purified His-tagged CATs
Type: physicochemical
Conditions: purified CAT
Procedure: To determine in vitro melting temperatures and catalytic efficiencies, His-tagged CATs were purified and characterized using know methods. In the 5,5′-dithiobis-2-nitrobenzoic acid (DTNB) assay, final enzyme concentrations of 0.05-0.1 μg/mL and 5-10 μg/mL were used for the reactions with chloramphenicol and alcohols, respectively. […] The enzyme reactions were held at 50° C. in a BioTek microplate reader for at least 30 minutes with measurements every one minute. The kinetic parameters were calculated using a non-linear regression method known to one of skill in the art.
For B1, the “melting temperature (Tm)” value was 43.5 °C. With B2 the “melting temperature (Tm)” value was 85.5 °C. In the case of B3, the “melting temperature (Tm)” value is reported as 80.2 °C. For B4, the “melting temperature (Tm)” value was 81.2 °C.

Target: CATec3 Y20F (Escherichia coli, UniProt P00484, Y20F)
Test: not given
Type: biochemical
Conditions: not given
With Butanol the kcat was 1.9 ± 0.4 s⁻¹.

Same assay, conditions: CATec3 Y20F, 50° C., 2 mM acetyl-CoA; average±standard deviation
Molecule `O=C(N[C@H](CO)[C@H](O)c1ccc([N+](=O)[O-])cc1)C(Cl)Cl` [Chloramphenicol] has a Km of 0.2 ± 0.05 mM and a kcat of 105.5 ± 6.9 s⁻¹. `OCc1ccco1` [Furfuryl alcohol] showed a Km of 37.1 ± 9.8 mM and a kcat of 1.1 ± 0.1 s⁻¹. Work on `COc1cccc(CO)c1` [3-Methoxybenzyl alcohol] yielded a Km of 10 ± 1.2 mM and a kcat of 18.8 ± 0.9 s⁻¹. `CC(C)CO` [Isobutanol] showed a kcat of 2.3 ± 0.1 s⁻¹. Molecule `CCCCCO` [Pentanol] has a Km of 64.7 ± 33.6 mM and a kcat of 3.9 ± 1.0 s⁻¹. For `OCCc1ccccc1` [Phenylethyl alcohol], the Km was 10.6 ± 0.4 mM and the kcat was 6.1 ± 0.1 s⁻¹. `OCc1ccccc1` [Benzyl alcohol] showed a Km of 12.2 ± 1.6 mM and a kcat of 1.6 ± 0.1 s⁻¹. In the case of `CC/C=C\CCO` [3-cis-Hexen-1-ol], the kcat is reported as 2.3 ± 0.2 s⁻¹. Work on `CC(C)CCO` [Isoamyl alcohol] yielded a Km of 59.9 ± 26.6 mM and a kcat of 2.8 ± 0.3 s⁻¹. Molecule `CCCCCCO` [Hexanol] has a Km of 29.2 ± 4 mM and a kcat of 6.4 ± 0.4 s⁻¹. In the case of `CC(C)=CCO` [Prenol], the kcat is reported as 2.7 ± 0.3 s⁻¹. In the case of `CC(C)=CCC/C(C)=C\CO` [Nerol], the Km is reported as 4.1 ± 0.8 mM and the kcat is reported as 2.2 ± 0.04 s⁻¹. In the case of `CC(C)=CCCC(C)CCO` (centres unmarked) [Citronellol], the Km is reported as 3.2 ± 0.3 mM and the kcat is reported as 7.7 ± 0.2 s⁻¹. With `CC(C)=CCC/C(C)=C/CO` [Geraniol] the Km was 4.1 ± 0.4 mM and the kcat was 8.0 ± 0.2 s⁻¹. Molecule `CCO` [Ethanol] has a kcat of 0.8 ± 1.0 s⁻¹.

Same assay, conditions: CATec3 Y20F, 50° C., 2 mM acetyl-CoA; average±standard deviation; read-out: KM
In the case of `CC/C=C\CCO` [3-cis-Hexen-1-ol], the Km is reported as 6.4 ± 2.2 mM.
